In the supplement of paper PMC5908809:

Key:
[1] = tested on: normal NK cells expanded with K562-aAPC; assay: percent inhibition of viability; higher = more inhibition; conditions: 72 h, IL-2 2.5 ng/mL
Method: (§1)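 Drug sensitivity and resistance testing on K562-aAPC-expanded normal NK cells: 5 concentrations (10-fold steps over a 10,000-fold range), 72 h at 37 °C, viability by CellTiter-Glo normalised to DMSO and benzethonium chloride controls; DSS from the fitted curve.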

[2] = tested on: DERL-7 (IL-2 2.5 ng/mL); assay: as above; conditions: 72 h
[3] = tested on: IMC-1 (IL-2 20 ng/mL); assay: as above; conditions: 72 h
[4] = tested on: KAI3 (IL-2 2.5 ng/mL); assay: as above; conditions: 72 h
[5] = tested on: KHYG-1 (IL-2 2.5 ng/mL); assay: as above; conditions: 72 h
[6] = tested on: NK-92 (IL-2 2.5 ng/mL); assay: as above; conditions: 72 h
[7] = tested on: NK-YS (IL-2 2.5 ng/mL); assay: as above; conditions: 72 h
[8] = tested on: NKL (IL-2 2.5 ng/mL); assay: as above; conditions: 72 h
[9] = tested on: SNK-6 (IL-2 2.5 ng/mL); assay: as above; conditions: 72 h
[10] = tested on: YT (IL-2 2.5 ng/mL); assay: as above; conditions: 72 h
[11] = tested on: normal primary NK cells, pool 1 (3 donors) (IL-2 2.5 ng/mL); assay: as above; conditions: 72 h
[12] = tested on: normal primary NK cells, pool 1 (3 donors), resting (IL-2 0 ng/mL); assay: as above; conditions: 72 h
[13] = tested on: normal primary NK cells, pool 2 (3 donors) (IL-2 2.5 ng/mL); assay: as above; conditions: 72 h
[14] = tested on: normal primary NK cells, pool 3 (3 donors) (IL-2 2.5 ng/mL); assay: as above; conditions: 72 h
[15] = tested on: normal NK cells expanded with K562-aAPC; assay: drug sensitivity score (DSS) (DSS units); higher = more sensitive; extreme values may be limits of the assay; conditions: 72 h; IL-2 2.5 ng/mL
Method: as §1

[16] = tested on: DERL-7 (IL-2 2.5 ng/mL); assay: as above; conditions: 72 h
[17] = tested on: IMC-1 (IL-2 20 ng/mL); assay: as above; conditions: 72 h
[18] = tested on: KAI3 (IL-2 2.5 ng/mL); assay: as above; conditions: 72 h
[19] = tested on: KHYG-1 (IL-2 2.5 ng/mL); assay: as above; conditions: 72 h
[20] = tested on: NK-92 (IL-2 2.5 ng/mL); assay: as above; conditions: 72 h
[21] = tested on: NK-YS (IL-2 2.5 ng/mL); assay: as above; conditions: 72 h
[22] = tested on: NKL (IL-2 2.5 ng/mL); assay: as above; conditions: 72 h
[23] = tested on: SNK-6 (IL-2 2.5 ng/mL); assay: as above; conditions: 72 h
[24] = tested on: YT (IL-2 2.5 ng/mL); assay: as above; conditions: 72 h
[25] = tested on: normal primary NK cells, pool 1 (3 donors) (IL-2 2.5 ng/mL); assay: as above; conditions: 72 h
[26] = tested on: normal primary NK cells, pool 1 (3 donors), resting (IL-2 0 ng/mL); assay: as above; conditions: 72 h
[27] = tested on: normal primary NK cells, pool 2 (3 donors) (IL-2 2.5 ng/mL); assay: as above; conditions: 72 h
[28] = tested on: normal primary NK cells, pool 3 (3 donors) (IL-2 2.5 ng/mL); assay: as above; conditions: 72 h

CCc1nc(-c2cccc(C)c2)c(-c2ccnc(NC(=O)c3ccccc3)c2)s1 [TAK-715] (max concentration tested 10000 nM)
percent inhibition of viability [%]
Conditions	1 nM	10 nM	100 nM	1000 nM	10000 nM
[1]	-6.95	-2.48	-3.15	7.93	1.86
[2]	-3.04	0.75	-2.18	-4.76	8.69
[3]	-6.3	1.07	-0.32	8.04	35.2
[4]	-4.52	11.6	8.66	14	47
[5]	-3.44	6.66	1.56	3.92	42.6
[6]	-3.47	-2.91	1.84	9.91	81.8
[7]	-4.18	3.4	5.2	13.3	54.6
[8]	-0.29	6.95	13.8	30.5	43.6
[9]	-15.1	-7.56	-2.44	-0.98	67
[10]	-1.34	5.71	0.2	5.66	48.7
[11]	-3.9	-10.5	-3.55	-13.9	13.3
[12]	2.15	0.59	-2.35	-18.5	45.6
[13]	-3.82	0.59	1.26	-4.23	23.5
[14]	-8.64	-2.23	3.1	-8.31	13.7

Conditions	drug sensitivity score
[15]	0
[16]	0
[17]	2.93
[18]	3.97
[19]	2.79
[20]	6.19
[21]	5.02
[22]	6.94
[23]	3.59
[24]	3.5
[25]	0.02
[26]	1.63
[27]	0.63
[28]	0.05
